Laboratory results published in the NIST ThermoML archive (doi:10.1021/acs.jced.8b00975).
Numbers after ± are expanded uncertainties.

Experiment: xn = mol fraction of the nth substance listed
Settings: 293.15 K, Liquid, Vibrating tube method

C=C(C)C(=O)OCCN(C)C [2-(dimethylamino)ethyl methylpropenoate] + CO
mass density (100 kPa, x1 = 0.0227): 806.56 ± 0.51 kg/m3 | mass density (100 kPa, x1 = 0.0807): 837.79 ± 0.51 kg/m3 | mass density (100 kPa, x1 = 0.1196): 853.33 ± 0.51 kg/m3 | mass density (100 kPa, x1 = 0.2003): 877.11 ± 0.51 kg/m3 | mass density (100 kPa, x1 = 0.3189): 898.63 ± 0.51 kg/m3 | mass density (100 kPa, x1 = 0.4003): 908.22 ± 0.51 kg/m3 | mass density (100 kPa, x1 = 0.4502): 912.84 ± 0.51 kg/m3 | mass density (100 kPa, x1 = 0.4914): 916.03 ± 0.51 kg/m3 | mass density (100 kPa, x1 = 0.5451): 919.46 ± 0.51 kg/m3 | mass density (100 kPa, x1 = 0.6446): 924.39 ± 0.52 kg/m3 | mass density (100 kPa, x1 = 0.6899): 926.07 ± 0.52 kg/m3 | mass density (100 kPa, x1 = 0.8265): 930.1 ± 0.53 kg/m3 | mass density (100 kPa, x1 = 0.8957): 931.56 ± 0.53 kg/m3 | mass density (100 kPa, x1 = 0.9213): 931.89 ± 0.53 kg/m3 | mass density (100 kPa, x1 = 0.977): 932.63 ± 0.54 kg/m3 | mass density (5000 kPa, x1 = 0.0227): 811.24 ± 0.52 kg/m3 | mass density (5000 kPa, x1 = 0.0807): 842.2 ± 0.52 kg/m3 | mass density (5000 kPa, x1 = 0.1196): 857.5 ± 0.51 kg/m3 | mass density (5000 kPa, x1 = 0.2003): 881.14 ± 0.51 kg/m3 | mass density (5000 kPa, x1 = 0.3189): 902.57 ± 0.51 kg/m3 | mass density (5000 kPa, x1 = 0.4003): 912.08 ± 0.51 kg/m3 | mass density (5000 kPa, x1 = 0.4502): 916.76 ± 0.51 kg/m3 | mass density (5000 kPa, x1 = 0.4914): 919.88 ± 0.51 kg/m3 | mass density (5000 kPa, x1 = 0.5451): 923.35 ± 0.52 kg/m3 | mass density (5000 kPa, x1 = 0.6446): 928.12 ± 0.52 kg/m3 | mass density (5000 kPa, x1 = 0.6899): 929.92 ± 0.52 kg/m3 | mass density (5000 kPa, x1 = 0.8265): 933.94 ± 0.53 kg/m3 | mass density (5000 kPa, x1 = 0.8957): 935.27 ± 0.54 kg/m3 | mass density (5000 kPa, x1 = 0.9213): 935.76 ± 0.54 kg/m3 | mass density (5000 kPa, x1 = 0.977): 936.53 ± 0.54 kg/m3 | mass density (10000 kPa, x1 = 0.0227): 815.62 ± 0.53 kg/m3 | mass density (10000 kPa, x1 = 0.0807): 846.3 ± 0.52 kg/m3 | mass density (10000 kPa, x1 = 0.1196): 861.44 ± 0.52 kg/m3 | mass density (10000 kPa, x1 = 0.2003): 884.9 ± 0.52 kg/m3 | mass density (10000 kPa, x1 = 0.3189): 906.24 ± 0.52 kg/m3 | mass density (10000 kPa, x1 = 0.4003): 915.72 ± 0.52 kg/m3 | mass density (10000 kPa, x1 = 0.4502): 920.42 ± 0.52 kg/m3 | mass density (10000 kPa, x1 = 0.4914): 923.47 ± 0.52 kg/m3 | mass density (10000 kPa, x1 = 0.5451): 926.95 ± 0.52 kg/m3 | mass density (10000 kPa, x1 = 0.6446): 931.65 ± 0.52 kg/m3 | mass density (10000 kPa, x1 = 0.6899): 933.48 ± 0.52 kg/m3 | mass density (10000 kPa, x1 = 0.8265): 937.53 ± 0.53 kg/m3 | mass density (10000 kPa, x1 = 0.8957): 938.82 ± 0.54 kg/m3 | mass density (10000 kPa, x1 = 0.9213): 939.37 ± 0.54 kg/m3 | mass density (10000 kPa, x1 = 0.977): 940.13 ± 0.55 kg/m3 | mass density (15000 kPa, x1 = 0.0227): 819.73 ± 0.54 kg/m3 | mass density (15000 kPa, x1 = 0.0807): 850.16 ± 0.53 kg/m3 | mass density (15000 kPa, x1 = 0.1196): 865.18 ± 0.52 kg/m3 | mass density (15000 kPa, x1 = 0.2003): 888.45 ± 0.52 kg/m3 | mass density (15000 kPa, x1 = 0.3189): 909.71 ± 0.52 kg/m3 | mass density (15000 kPa, x1 = 0.4003): 919.18 ± 0.52 kg/m3 | mass density (15000 kPa, x1 = 0.4502): 923.87 ± 0.52 kg/m3 | mass density (15000 kPa, x1 = 0.4914): 926.87 ± 0.52 kg/m3 | mass density (15000 kPa, x1 = 0.5451): 930.34 ± 0.52 kg/m3 | mass density (15000 kPa, x1 = 0.6446): 935.02 ± 0.53 kg/m3 | mass density (15000 kPa, x1 = 0.6899): 936.82 ± 0.53 kg/m3 | mass density (15000 kPa, x1 = 0.8265): 940.91 ± 0.54 kg/m3 | mass density (15000 kPa, x1 = 0.8957): 942.24 ± 0.54 kg/m3 | mass density (15000 kPa, x1 = 0.9213): 942.76 ± 0.55 kg/m3 | mass density (15000 kPa, x1 = 0.977): 943.52 ± 0.55 kg/m3 | mass density (20000 kPa, x1 = 0.0227): 823.64 ± 0.55 kg/m3 | mass density (20000 kPa, x1 = 0.0807): 853.82 ± 0.54 kg/m3 | mass density (20000 kPa, x1 = 0.1196): 868.77 ± 0.53 kg/m3 | mass density (20000 kPa, x1 = 0.2003): 891.85 ± 0.53 kg/m3 | mass density (20000 kPa, x1 = 0.3189): 913.03 ± 0.52 kg/m3 | mass density (20000 kPa, x1 = 0.4003): 922.49 ± 0.52 kg/m3 | mass density (20000 kPa, x1 = 0.4502): 927.16 ± 0.52 kg/m3 | mass density (20000 kPa, x1 = 0.4914): 930.13 ± 0.52 kg/m3 | mass density (20000 kPa, x1 = 0.5451): 933.58 ± 0.52 kg/m3 | mass density (20000 kPa, x1 = 0.6446): 938.27 ± 0.53 kg/m3 | mass density (20000 kPa, x1 = 0.6899): 940.01 ± 0.53 kg/m3 | mass density (20000 kPa, x1 = 0.8265): 944.15 ± 0.54 kg/m3 | mass density (20000 kPa, x1 = 0.8957): 945.55 ± 0.55 kg/m3 | mass density (20000 kPa, x1 = 0.9213): 946.01 ± 0.55 kg/m3 | mass density (20000 kPa, x1 = 0.977): 946.76 ± 0.55 kg/m3 | mass density (25000 kPa, x1 = 0.0227): 827.39 ± 0.56 kg/m3 | mass density (25000 kPa, x1 = 0.0807): 857.37 ± 0.54 kg/m3 | mass density (25000 kPa, x1 = 0.1196): 872.24 ± 0.54 kg/m3 | mass density (25000 kPa, x1 = 0.2003): 895.18 ± 0.53 kg/m3 | mass density (25000 kPa, x1 = 0.3189): 916.26 ± 0.53 kg/m3 | mass density (25000 kPa, x1 = 0.4003): 925.73 ± 0.53 kg/m3 | mass density (25000 kPa, x1 = 0.4502): 930.33 ± 0.53 kg/m3 | mass density (25000 kPa, x1 = 0.4914): 933.31 ± 0.53 kg/m3 | mass density (25000 kPa, x1 = 0.5451): 936.74 ± 0.53 kg/m3 | mass density (25000 kPa, x1 = 0.6446): 941.45 ± 0.53 kg/m3 | mass density (25000 kPa, x1 = 0.6899): 943.12 ± 0.53 kg/m3 | mass density (25000 kPa, x1 = 0.8265): 947.29 ± 0.54 kg/m3 | mass density (25000 kPa, x1 = 0.8957): 948.77 ± 0.55 kg/m3 | mass density (25000 kPa, x1 = 0.9213): 949.17 ± 0.55 kg/m3 | mass density (25000 kPa, x1 = 0.977): 949.92 ± 0.56 kg/m3
